In ChEMBL document CHEMBL2440011, “Screening for inhibitors of the hepatitis C virus internal ribosome entry site RNA” (Bioorg Med Chem, 2013) one finds Activity and inhibition data, which are given here for four compounds.

The source made the active and inactive calls. The calls are words filed in the database; no cut-off is given here.

Test [1] is described as follows: Binding affinity to 5'-terminal cyanine dye-labeled IRES subdomain 2a RNA (unknown origin) by FRET assay in presence of Mg2+.
Test [2] can be described thus: Binding affinity to 5'-terminal cyanine dye-labeled IRES subdomain 2a RNA (unknown origin) at 200 uM by FRET assay.
A short description of test [3]: Binding affinity to cap RNA (unknown origin) assessed as inhibition of cap-dependent firefly luciferase reporter translation. Background: A reporter such as luciferase makes a cellular process visible.
The subject of test [4] is Internal ribosome entry site (IRES). Put plainly: Binding affinity to HCV IRES RNA assessed as inhibition of RNA translation at […] by luciferase reporter gene assay. To be noted: Hepacivirus hominis.
A short description of test [5]: Binding affinity to 5'-terminal cyanine dye-labeled IRES subdomain 2a RNA (unknown origin) at 200 uM by FRET assay in presence of tRNA.

Turning to `CN(C)CC1COc2ccc3nc4n(c3c2C1)CC(CN(C)C)CN4` (stereo not drawn), the result in test [1] was Active.
`CN(C)CCCn1c(N)nc2ccc3c(c21)CC(CN(C)C)CO3` (stereo not drawn): the Activity entry in test [1] was “Dose-dependent effect”.
Take `CN(C)CCCNc1nc2cc(N)ccc2o1`: the result in test [2] was Active.
As to `CN(C)CCCNc1nc2ccc(N)cc2o1`, the inhibition result in test [3] was “inactive”. The inhibition in test [4] was determined as 30%. The result in test [5] and in test [2] was Active. Besides, in test [1], the Activity entry is “Dose-dependent effect”.

A word on the inhibition: it is the percentage by which the read-out fell short of the control.
